# Assay results reported in US9687569B2, “Theranostic nanoparticle and methods for making and using the nanoparticle” (priority 2012, dated 2017).
# Experiments:
# C6-ADR cells [1] = test: Fluorescence and confocal imaging of intracellular DOX; assay type: cell-based, rat
# Procedure: The internalization pathway of free DOX and NP-DOX were investigated by labeling endosomal compartments of cells with calcein after incubation with cells for 4 h.
# C6-ADR cells were plated at 500,000 cells per well in 6-well plates containing 22×22 mm glass cover slips the night before treatment. Cells were treated with 1000 ng/mL free DOX or NP-DOX with equimolar concentration of DOX in 2 mL fully supplemented DMEM for 4 hrs before cells were washed three times with PBS and 2 mL fresh fully supplemented media added. After 24 hrs, cells were washed three times with PBS, and fixed in 4% formaldehyde (Polysciences Inc., Warrington, Pa.) for 30 min. Cell membranes were stained with wheat germ agglutinin, Alexa Fluor 488 conjugates (WGA-AF488, Invitrogen, Carlsbad, Calif.) following the manufacturer's protocol. The cover slips were then mounted on microscope slides using Prolong Gold anti-fade solution (Invitrogen, Carlsbad, Calif.) containing DAPI for cell nuclei staining. Images were acquired on an inverted fluorescent microscope (Nikon Instruments, Melville, N.Y.) with the appropriate filters using a Nikon Ril Color Cooled Camera System and 60× oil objective Lens. For internalization pathway experiment, cells were treated with DOX or NP-DOX in the presence of 0.25 mM calcein for 4 hrs. […] DOX and calcein uptake were analyzed using confocal microscopy (Zeiss 510 Meta).
# C6-ADR cells [2] = test: Intracellular DOX quantification; assay type: cell-based, rat; conditions: for intracellular concentration of DOX: 1000 ng/mL DOX
# Procedure: Concurrently, intracellular concentration of DOX was determined (FIG. 6B) by UV analysis.
smiles,measurement,setting,value
"COc1cccc2c1C(=O)c1c(O)c3c(c(O)c1C2=O)C[C@@](O)(C(=O)CO)C[C@@H]3O[C@H]1C[C@H](N)[C@H](O)[C@H](C)O1.Cl [free DOX, Doxorubicin.HCl]",intracellular DOX fluorescence,"C6-ADR cells [1]; C6-ADR cells treated 4 h, imaged 24 h after initial incubation",minimal fluorescence
same,intracellular localization of DOX signal (calcein-labeled endosomes),"C6-ADR cells [1]; C6-ADR cells, 4 h incubation, confocal",partially colocalized with nucleus and partially localized in cytoplasma
same,intracellular concentration of DOX,C6-ADR cells [2]; 24 h after treatment,0.13±0.01 pg/cell
same,decrease of intracellular DOX concentration,C6-ADR cells [2]; by 24 h after initial exposure,91%
same,intracellular concentration of DOX,C6-ADR cells [2]; four hours after treatment,1.49±0.05 pg/cell
